Relative viability data for 1 cell line are collected here from the supplement of paper PMC10307832.

What all share (assay): relative viability (nuclei count vs DMSO), 5 days (fraction); higher = more cells survive
Compound in one assay: CC(C)C[C@H](NC(=O)[C@H](CCc1ccccc1)NC(=O)CN1CCOCC1)C(=O)N[C@@H](Cc1ccccc1)C(=O)N[C@@H](CC(C)C)C(=O)[C@@]1(C)CO1 [Carfilzomib]
The procedure, abridged: (§1)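 Cells of lung cancer lines were placed in 1536-well plates and kept overnight at 37 °C. Pinning then delivered five library-drug doses (not always all listed), spaced by √10, onto plates anchored with vehicle, and the cells were left 5 days without changing medium. One step fixed, permeabilised and stained them with Hoechst, and MetaXpress counted nuclei in 4× images. Viability, as a median over plates, is treated-well nuclei divided by vehicle-well nuclei, with acceptance only at control CV below 25% and at least one doubling.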

Compound in another assay: O=C(c1cc(Cc2n[nH]c(=O)c3ccccc23)ccc1F)N1CCN(C(=O)C2CC2)CC1 [Olaparib]
In a few lines:
as §1

Compound in the next assay: C[C@@H](Oc1cc(-c2cnn(C3CCNCC3)c2)cnc1N)c1c(Cl)ccc(F)c1Cl [Crizotinib]
The procedure, abridged:
as §1

As for NCI-H1793, the relative viability with Carfilzomib (0.003162 µM) amounted to 1.03; in the assay with Carfilzomib (0.01 µM), 0.827; with Carfilzomib (0.03162 µM), 0.9; with Carfilzomib (0.1 µM), 0.165; with Olaparib (0.08 µM), 0.93; with Olaparib (0.253 µM), 0.856. Besides, the relative viability came to 0.824 in the assay with Olaparib (2.53 µM); 0.776 with Olaparib (8 µM); 0.911 in the assay with Olaparib (8 µM, anchor plate); 0.987 with Crizotinib (0.03162 µM); 1.09 in the assay with Crizotinib (1 µM).
